Source: patent publication US12138246B2, “Treatments with nirogacestat” (SpringWorks Therapeutics, Inc., priority 2022, dated 2024)
Counter-ions that a name gives are not always drawn.

Experiments:
[1] = test system: progressing desmoid tumors/aggressive fibromatosis (DT/AF); type: in vivo
Text: A Phase 3, double-blind, placebo-controlled study is being conducted to determine the efficacy and safety of nirogacestat dihydrobromide in participants with progressing desmoid tumors. A Phase 1 solid tumor study provided preliminary efficacy (Messersmith, W., et al., “A Phase I, dose-finding study in patients with advanced solid malignancies of the oral γ-secretase inhibitor PF-03084014,” Clin. Cancer Res., 21:60-7 (2015)), including long-term durable responses and safety of nirogacestat in desmoid participants (Villalobos, V. M., et al., “Long-Term Follow-Up of Desmoid Fibromatosis Treated with PF-03084014, an Oral Gamma Secretase Inhibitor, Ann. Surg. Oncol., 25:768-75 (2018)). These encouraging results lead to a Phase 2 study in participants with progressing desmoid tumors (Kummar, S., et al., “Clinical Activity of the γ-Secretase Inhibitor PF-03084014 in Adults with Desmoid Tumors (Aggressive Fibromatosis), J. Clin. Oncol., 35:1561-69 (2017)). […] Importantly, participants in the responder group had failed previous systemic therapies (imatinib or sorafenib) indicating a need for alterative therapeutic options for this patient population.
Overall Design: The Phase 3 study will be a multi-center, randomized, double-blind, placebo-controlled, event-driven to compare the efficacy, safety, and tolerability of nirogacestat and placebo in adult participants with progressing DT/AF. This study will consist of 2 phases, a double-blind and an optional open-label extension (OLE) phase.
Following disease progression (confirmed by central review using RECIST v1.1), or completion of the double-blind phase (once the required number of events have been observed and the primary PFS analysis has been completed), participants' treatment assignment will be unblinded, and if eligible, participants will have the option to enroll in the optional OLE phase.
• 1. Participant has DT/AF that has progressed by ≥20% as measured by RECIST v1.1 within the 12-month period prior to first dose of study treatment. • 2. Participant has: • a. Newly diagnosed, measurable progressing DT/AF that is not amenable to surgical resection or radiation therapy; • OR • b. Recurrent, progressing DT/AF following CR to initial therapy; • OR • c. Preexisting DT/AF and has previously received therapy and the residual tumor has progressed. • 3. Participant agrees to provide archival or new tumor tissue for confirmation of disease. • 4. If participant was previously treated with an investigational therapy for treatment of DT/AF, participant must have completed prior therapy at least 28 days prior to signing informed consent. All toxicities from prior therapy must resolve to ≤Grade 1 or baseline. • 5. Participants who are receiving nonsteroidal anti-inflammatory drugs (NSAIDs) as treatment for conditions other than DT/AF must be receiving them prior to the observed progression (inclusion criteria 1) for: • a. Chronic scheduled daily use (defined as stable for 28 days prior to signing informed consent); or • b. Occasional use (defined as ≤3 days per week) for the treatment of pain or as an anti-inflammatory in licensed conditions such as headache, arthritis, etc. • c. Participant has an Eastern Cooperative Oncology Group (ECOG) performance status ≤2 at screening. • 6. Participant has adequate organ and bone marrow function as defined by the following Screening laboratory values: • a. Absolute neutrophil count ≥1500/μL; • b. Platelets ≥100×10^3/μL; • c. Hemoglobin ≥9 g/dL; • d. Total bilirubin ≤1.5× upper limit of normal (ULN) (isolated bilirubin >1.5×ULN is acceptable if bilirubin is fractionated and direct bilirubin <35%); • e. Aspartate aminotransferase (AST) (serum glutamic oxaloacetic transaminase)/alanine aminotransferase (ALT) (serum glutamic pyruvate transaminase)≤2×ULN; and • f. […] Participant can swallow tablets and has no gastrointestinal conditions affecting absorption. […]

[2] = test system: progressing desmoid tumors; conditions: Phase 2, participants with progressing desmoid tumors; cited from earlier work
[3] = Pharmacokinetic parameters for single oral doses; type: in vivo, human
[4] = intent-to-treat population, n = 70
[5] = Min, COHORT 1: 150 mg (3 × 50 mg), Period 1

## CCC[C@H](N[C@H]1CCc2cc(F)cc(F)c2C1)C(=O)Nc1cn(C(C)(C)CNCC(C)(C)C)cn1 (single isomer, unassigned) [nirogacestat]
[1]; in vivo
  most frequent adverse reactions requiring a dose reduction or interruption: diarrhea, rash maculo-papular, hypophosphatemia, stomatitis, folliculitis, and fatigue
[1]; [4]
  Best overall response, n (%): Complete response: 5 (7) n (%)
  Best overall response, n (%): Not evaluable: 4 (6) n (%)
  Best overall response, n (%): Partial response: 24 (34) n (%)
  Best overall response, n (%): Progressive disease: 1 (1) n (%)
  Best overall response, n (%): Stable disease: 35 (50) n (%)
  Disease control rate, n (%): 64 (91) n (%)
  Time to response, months, median (range): 5.6 (2.6, 19.4) months
[1]; nirogacestat over placebo, 150 mg twice daily, p<0.001
  progression-free survival (PFS), hazard ratio (HR): 0.29
[2]
  progression while on therapy: no participants progressing while on therapy

## CCC[C@H](N[C@H]1CCc2cc(F)cc(F)c2C1)C(=O)Nc1cn(C(C)(C)CNCC(C)(C)C)cn1 [nirogacestat dihydrobromide]
[3]; Max, COHORT 1: 150 mg (1 × 150 mg), Period 2
  CL/F: 82.0 L/h
[3]; Max, COHORT 1: 150 mg (3 × 50 mg), Period 1
  Half-life: 32.0 h
[3]; Max, COHORT 3: 50 mg, Period 1
  CL/F: 660 L/h
[3]; Median, COHORT 1: 150 mg (3 × 50 mg), Period 1
  CL/F: 57.0 L/h
[3]; [5]
  AUCinf: 2160 ng·h/mL
  AUClast: 2080 ng·h/mL
